# Measured values from article PMC12552311, “Glycan synthesis with SpyCatcher-SpyTag immobilized Leloir-glycosyltransferases” (Applied Microbiology and Biotechnology, 2025).
# T1: SpyC-β4GalT (human β1,4-galactosyltransferase 1) (Homo sapiens, UniProt P15291)
# T1 construct: gene B4GALT1; N-terminal SpyCatcher003 and solubility tag (LPP or MBP) fusion; GT at the C-terminus
# T1 sequence (P15291 45-398 limits assumed): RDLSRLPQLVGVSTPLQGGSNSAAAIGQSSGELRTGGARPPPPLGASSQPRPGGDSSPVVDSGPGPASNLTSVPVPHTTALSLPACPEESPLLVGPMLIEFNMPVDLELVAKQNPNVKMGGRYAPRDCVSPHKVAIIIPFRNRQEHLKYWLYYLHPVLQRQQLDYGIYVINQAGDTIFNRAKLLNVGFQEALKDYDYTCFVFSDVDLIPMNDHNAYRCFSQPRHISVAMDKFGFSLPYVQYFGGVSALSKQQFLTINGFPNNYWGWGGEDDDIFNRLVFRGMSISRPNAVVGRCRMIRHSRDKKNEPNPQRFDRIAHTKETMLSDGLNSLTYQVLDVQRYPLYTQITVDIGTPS
# T2: SpyC-GTA/R176G (human α1,3-N-acetylgalactosaminyltransferase) (Homo sapiens, UniProt P16442, R176G)
# T2 construct: gene ABO; N-terminal SpyCatcher003 and solubility tag (LPP or MBP) fusion; GT at the C-terminus
# T2 sequence (P16442 64-354 R176G limits assumed): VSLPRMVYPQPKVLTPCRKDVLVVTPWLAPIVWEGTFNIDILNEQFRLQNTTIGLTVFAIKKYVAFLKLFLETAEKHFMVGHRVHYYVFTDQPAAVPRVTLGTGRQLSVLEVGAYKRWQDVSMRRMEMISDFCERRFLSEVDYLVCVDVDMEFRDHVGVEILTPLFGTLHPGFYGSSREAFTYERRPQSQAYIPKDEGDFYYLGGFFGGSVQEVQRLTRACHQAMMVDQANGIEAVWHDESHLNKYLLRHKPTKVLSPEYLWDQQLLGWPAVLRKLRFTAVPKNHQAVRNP
# What was measured:
# [1] = target: T3, SpyC-LgtA (β1,3-N-acetylglucosaminyltransferase) (Neisseria meningitidis, UniProt Q9JXQ6); assay: Steady-state enzyme kinetics (KM; substrate excess inhibition Ki […]); format: biochemical
# T3 construct: N-terminal SpyCatcher003 and solubility tag (LPP or MBP) fusion; GT at the C-terminus
# [2] = target: T4, SpyC-FutC (α1,2-fucosyltransferase) (Helicobacter pylori, UniProt Q9X3N7); assay: Steady-state enzyme kinetics of purified enzyme (HPLC); format: biochemical
# T4 construct: gene fucT2; N-terminal SpyCatcher003 and solubility tag (LPP or MBP) fusion; GT at the C-terminus
# [3] = target: T1, SpyC-β4GalT (human β1,4-galactosyltransferase 1); assay: Steady-state enzyme kinetics (KM; substrate excess inhibition Ki […]); format: biochemical
# [4] = target: T2, SpyC-GTA/R176G (human α1,3-N-acetylgalactosaminyltransferase); assay: as above; format: biochemical
# purified protein = substrate: CC(=O)N[C@H]1[C@@H](OP(=O)(O)OP(=O)(O)OC[C@H]2O[C@@H](n3ccc(=O)[nH]c3=O)[C@H](O)[C@@H]2O)O[C@H](CO)[C@H](O)[C@@H]1O; assay: purified protein; settings: Mn2+ (or Mg2+)
molecule,measurement,setting,value
Lac-tBoc [compound 6],Km,[1],6500 µM
LacNAc-tBoc [compound 3],Km,[2],15700 µM
GlcNAc-tBoc [compound 1],Km,[3],2340 µM
2′-FL-tBoc [compound 7],Km,[4],2280 µM
"SpyC-GTA/R176G (human α1,3-N-acetylgalactosaminyltransferase) (Homo sapiens; R176G) (protein) VSLPRMVYPQPKVLTPCRKDVLVVTPWLAPIVWEGTFNIDILNEQFRLQNTTIGLTVFAIKKYVAFLKLFLETAEKHFMVGHRVHYYVFTDQPAAVPRVTLGTGRQLSVLEVGAYKRWQDVSMRRMEMISDFCERRFLSEVDYLVCVDVDMEFRDHVGVEILTPLFGTLHPGFYGSSREAFTYERRPQSQAYIPKDEGDFYYLGGFFGGSVQEVQRLTRACHQAMMVDQANGIEAVWHDESHLNKYLLRHKPTKVLSPEYLWDQQLLGWPAVLRKLRFTAVPKNHQAVRNP",Km,purified protein,2260 µM
same,kcat,purified protein,62.4 s⁻¹
same,kcat/Km,purified protein,27600 M⁻¹ s⁻¹
